Measured values from US11578055B2, “Triazacyclododecansulfonamide (“TCD”)-based protein secretion inhibitors” (KEZAR LIFE SCIENCES, priority 2018, dated 2023).

Assays:
[1] = test system: HER3 signal sequence plus 4 amino acids fused to Gaussia Luciferase (HER3-ss+4aa/Gaussia Luciferase); experiment: Dox Induced HER3-ss-Gluc Assay; format: cell-based; details: 24 hr, doxycycline induced, Flp-In 293 T-REx cells; read-out: 24 hr Dox Inducible Her3(ss + 4) Gluc 293FRT/TO: Mean 1050
Source text: FIp-In 293 T-REx™ cells were transfected with pcDNA™5/FRT/TO plasmid inserted with cDNA encoding Gaussia Luciferase fused to the 3′ end of cDNA encoding HER3 signal sequence plus 4 amino acids (N-[…]-C) (SEQ ID NO: 2). Transfected cells were selected for resistance to the selectable markers Hygromycin and Blasticidin to create a stable cell line that contained the HER3-ss+4aa/Gaussia Luciferase cDNA insert whose expression was regulated under the T-REx™ system. The day before assay, cells were trypsinized and plated in 384-well tissue culture plates. The next day, compound dilutions in DMSO/media containing doxycycline were added to the wells and incubated at 37° C., 5% CO2.
For chemical structures that include one or more stereoisomers, but are illustrated without indicating stereochemistry, the assay data refers to a mixture of stereoisomers.

[2] = In Vitro Microsome Stability Assay (monkey); format: in vitro ADME; details: monkey liver microsomes, 30 min w/ NADPH
Summary of the method: (§1)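 Species liver microsomes in potassium phosphate buffer were preincubated at 37 °C for 3–5 min with test compound (added from 0.25 mM DMSO stock), then started with NADPH. Samples at 0 and 30 min were quenched with acetonitrile containing internal standard and analysed by LC-MS/MS; % remaining at 30 min used analyte/IS AUC ratios relative to t=0.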

[3] = test system: multiple myeloma cell line NCl-H929; experiment: H929 Cell Viability Assay; format: cell-based, human; details: Homo sapiens, NCI-H929, 48 h, H929, Celltiter-Glo
Summary of the method: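 NCI-H929 myeloma cells in RPMI 1640 with 10% FBS were treated with compound dilutions for 48 h at 37 °C, and viability was then read by CellTiter-Glo luminescence. Compounds drawn without stereochemistry were tested as stereoisomer mixtures.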

[4] = test system: full length IL-2 (amino acids 1-153) fused to Gaussia Luciferase; experiment: Dox Induced IL2-FL-Gluc Assay; format: cell-based; details: 24 hr, Dox inducible, 293FRT/TO cells; read-out: 24 hr Dox Inducible IL2FLGluc 293FRT/TO: Mean IC50
Summary of the method: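 Flp-In 293 T-REx stable line expressing full-length IL-2 (aa 1-153) with C-terminal Gaussia luciferase fusion under doxycycline-inducible control. Cells plated the day before; compound dilutions added in DMSO/media containing doxycycline, incubated at 37° C, 5% CO2.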

[5] = In Vitro Microsome Stability Assay (mouse); format: in vitro ADME; details: mouse liver microsomes, 30 min w/ NADPH
Summary of the method: as §1

[6] = In Vitro Microsome Stability Assay (human); format: in vitro ADME; details: human liver microsomes, 30 min w/ NADPH
Summary of the method: as §1

[7] = test system: PD1 signal sequence plus 10 amino acids fused to Gaussia Luciferase (PD1-ss+10aa/Gaussia Luciferase); experiment: Dox Induced PD1-ss-Gluc Assay; format: cell-based; details: 24 hr, Dox inducible, 293FRT/TO cells; read-out: 24 hr Dox Inducible PD1ssGluc 293FRT/TO: Mean IC50
Summary of the method: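 Stable Flp-In 293 T-REx line expressing the fusion under tetracycline-inducible control, plated the day before assay. Compound dilutions added with doxycycline and incubated at 37 °C, 5% CO2; unspecified stereocentres mean data refer to stereoisomer mixtures.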

[8] = test system: multiple myeloma cell line U266B1; experiment: U266 Cell Viability Assay; format: cell-based, human; details: Homo sapiens, U-266; 48 hr, U266, Celltiter-Glo
Summary of the method: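 U266B1 myeloma cells in RPMI 1640 with 10% FBS were treated with compound dilutions for 48 h at 37° C, 5% CO2. Viability was read as CellTiter-Glo luminescence. Data for structures drawn without stereochemistry refer to stereoisomer mixtures.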

[9] = test system: full length TNFα (amino acids 1-233) fused to Gaussia Luciferase; experiment: Dox Induced TNFα-FL-Gluc Assay; format: cell-based; details: 24 hr, Dox inducible, 293FRT/TO cells; read-out: 24 hr Dox Inducible TNFaFLGluc 293FRT/TO: Mean IC50
Summary of the method: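 Stable Flp-In 293 T-REx line expressing doxycycline-inducible full-length TNFα fused to Gaussia luciferase; cells plated the day before, then treated with compound dilutions in doxycycline-containing medium at 37° C, 5% CO2. Unspecified stereocentres mean stereoisomer mixtures were tested.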

[10] = In Vitro Microsome Stability Assay (rat); format: in vitro ADME; details: rat liver microsomes, 30 min w/ NADPH
Summary of the method: as §1

COc1cc(F)ccc1N1CCN(S(=O)(=O)N2CCCN([C@@H](C)C3CCCCC3)CCCN(S(=O)(=O)c3ccc(N(C)C)cc3)C[C@H](C)C2)CC1 [A203]
IC50 [1]: 34.1 nM | Liver Microsome Stability-% Left after 30 min w/ NADPH (%) Monkey [2]: 77.9% | EC50 [3]: 396 nM | IC50 [4]: 30.4 nM | Liver Microsome Stability-% Left after 30 min w/ NADPH (%) Mouse [5]: 80.3% | Liver Microsome Stability-% Left after 30 min w/ NADPH (%) Human [6]: 83.4% | IC50 [7]: 14.8 nM | EC50 [8]: > 25 µM | IC50 [9]: 434 nM | Liver Microsome Stability-% Left after 30 min w/ NADPH (%) Rat [10]: 78.7%

CCc1ccc(CNS(=O)(=O)N2CCCN(CC3CCCCC3)CCCN(S(=O)(=O)c3ccc(N(C)C)cc3)C[C@H](C)C2)cc1 [A189, (3S)-9-(cyclohexylmethyl)-5-[4-(dimethylamino)benzenesulfonyl]-N-[(4-ethylpheny)methyl]-3-methyl-1,5,9-triazacyclododecane-1-sulfonamide]
IC50 [1]: 960 nM | Liver Microsome Stability-% Left after 30 min w/ NADPH (%) Monkey [2]: 0.01% | EC50 [3]: 10600 nM | IC50 [4]: 1360 nM | Liver Microsome Stability-% Left after 30 min w/ NADPH (%) Mouse [5]: 0.14% | Liver Microsome Stability-% Left after 30 min w/ NADPH (%) Human [6]: 0.06% | IC50 [7]: 512 nM | EC50 [8]: > 25 µM | IC50 [9]: 8140 nM | Liver Microsome Stability-% Left after 30 min w/ NADPH (%) Rat [10]: 0.07%

C[C@H]1CN(S(=O)(=O)c2ccc(N(C)C)cc2)CCCN(CCC2CCCC2)CCCN(S(=O)(=O)N2CCc3cc(Cl)ccc3C2)C1 [A120, 4-{[(3S)-5-[(6-chloro-1,2,3,4-tetrahydroisoquinolin-2-yl)sulfonyl]-9-(2-cyclopentylethyl)-3-methyl-1,5,9-triazacyclododecan-1-yl]sulfonyl}-N,N-dimethylaniline]
IC50 [1]: 31.4 nM | Liver Microsome Stability-% Left after 30 min w/ NADPH (%) Monkey [2]: 16.3% | EC50 [3]: 672 nM | IC50 [4]: 27.3 nM | Liver Microsome Stability-% Left after 30 min w/ NADPH (%) Mouse [5]: 19.2% | Liver Microsome Stability-% Left after 30 min w/ NADPH (%) Human [6]: 4.78% | IC50 [7]: 15.6 nM | EC50 [8]: > 25 µM | IC50 [9]: 239 nM | Liver Microsome Stability-% Left after 30 min w/ NADPH (%) Rat [10]: 28.5%

COc1cccc([C@@H]2CCCN(S(=O)(=O)N3CCCN(CC4CCCCC4)CCCN(S(=O)(=O)c4ccc(N(C)C)cc4)C[C@H](C)C3)C2)c1 [A209]
IC50 [1]: 498 nM | Liver Microsome Stability-% Left after 30 min w/ NADPH (%) Monkey [2]: 45.7% | EC50 [3]: > 25000 nM | IC50 [4]: 673 nM | Liver Microsome Stability-% Left after 30 min w/ NADPH (%) Mouse [5]: 31.8% | Liver Microsome Stability-% Left after 30 min w/ NADPH (%) Human [6]: 22.6% | IC50 [7]: 327 nM | EC50 [8]: > 25 µM | IC50 [9]: > 25000 nM | Liver Microsome Stability-% Left after 30 min w/ NADPH (%) Rat [10]: 44.7%

C[C@H]1CN(S(=O)(=O)c2ccc(N(C)C)cc2)CCCN([C@@H](C)c2ccccc2)CCCN(S(=O)(=O)N2CCc3ccccc3C2)C1 [A205, N,N-dimethyl-4-{[(3S)-3-methyl-9-[(1 S)-1-phenylethyl]-5-(1,2,3,4-tetrahydroisoquinoline-2-sulfonyl)-1,5,9-triazacyclododecan-1-yl]sulfonyl}aniline]
IC50 [1]: 230 nM | Liver Microsome Stability-% Left after 30 min w/ NADPH (%) Monkey [2]: 31.7% | EC50 [3]: 2360 nM | IC50 [4]: 305 nM | Liver Microsome Stability-% Left after 30 min w/ NADPH (%) Mouse [5]: 38.9% | Liver Microsome Stability-% Left after 30 min w/ NADPH (%) Human [6]: 37.2% | IC50 [7]: 129 nM | EC50 [8]: > 25 µM | IC50 [9]: 1810 nM | Liver Microsome Stability-% Left after 30 min w/ NADPH (%) Rat [10]: 38.7%

C[C@H]1CN(S(=O)(=O)c2ccc(N(C)C)cc2)CCCNCCCN(S(=O)(=O)N2CCc3cc(Cl)ccc3C2)C1 [A183, 4-{[(3S)-5-[(6-chloro-1,2,3,4-tetrahydroisoquinolin-2-yl)sulfonyl]-3-methyl-1,5,9-triazacyclododecan-1-yl]sulfonyl}-N,N-dimethylaniline]
IC50 [1]: 2150 nM | Liver Microsome Stability-% Left after 30 min w/ NADPH (%) Monkey [2]: 0.75% | EC50 [3]: 6120 nM | IC50 [4]: 2520 nM | Liver Microsome Stability-% Left after 30 min w/ NADPH (%) Mouse [5]: 7.39% | Liver Microsome Stability-% Left after 30 min w/ NADPH (%) Human [6]: 10.1% | IC50 [7]: 1440 nM | EC50 [8]: > 25 µM | Liver Microsome Stability-% Left after 30 min w/ NADPH (%) Rat [10]: 3.17%
